Columns and labels:
[1] = tested on: HBV core protein (HBc), surface antigen (HBsAg) and e antigen (HBeAg); experiment: HBV protein expression (HBc Western blot; HBsAg, HBeAg ELISA); assay type: cell-based, hepatitis B virus (HBV ayw)
Source text: (§1) Anti-HBc (Dako), anti-PPARγ (Santa Cruz), anti-GAPDH, anti-PKLR, anti-G6Pase, anti-tubulin, anti-PGC1α (Origene), anti-PCK1 (Abnova), anti-GCK (Biovision), Secondary antibodies include mouse anti-rabbit-HRP, goat anti-mouse-HRP (GeneTex, Taiwan) and donkey anti-goat-HRP (Santa Cruz).
Chua, P. K., et al. Journal of virology 84, 2340-2351 (2010),

HBV = HBV DNA replication after cotransfection/treatment, Southern blot; assay type: cell-based, hepatitis B virus (HBV ayw)
Source text: The methods to construct the miRNA expression vectors are as detailed elsewhere. Chen, H. L. et al. PloS one 7, e34116 (2012). PCR products were sub-cloned from TA cloning vector (RBC) to pSuper (OligoEngine, Inc) by Hind III digestion. All plasmids were confirmed by sequencing. Approximately 8-400 fold higher level of microRNA expression was detected by transfection and stem loop RT-PCR analysis. […] The PPARγ and PGC1α expression vectors were from GeneCopoeia.
Human hepatoma Huh7 and HepG2 cells were maintained as described previously Chua, P. K., et al. Journal of virology 84, 2340-2351 (2010), Le Pogam, S., et al., Journal of virology 79, 1871-1887 (2005). In general, the phenotype of viral replication and the effect of microRNA are stronger in HepG2 than Huh7 cells. However, Huh7 cells are easier to passage and transfect. Therefore, we used these two cell lines interchangeably.
Rosiglitazone and GW9662 were from Sigma. HepG2 and Huh7 cells were seeded in 6-well tissue culture plates at 5×10, Quasdorff, M. et al. Journal of viral hepatitis 17, 527-536 (2010) cells/well. At 24 h post-transfection, Rosiglitazone or GW9662 in 0.1% DMSO was added to medium. Culture medium was changed ever two days before harvest.
HBV core particle-associated DNA, total cellular cytoplasmic RNA, and microRNA were analyzed by Northern blot as described previously. […]

HepG2 cells = experiment: Measurement of glucose production in cell culture; assay type: cell-based, human
Protocol: The glucose level of HBV transgenic mice was measured using a kit of DRI-CHEM SLIDE GLU-PIII (FUJIFILM, JAPAN). Ten microliters of mouse serum was deposited on a FUJI DRI-CHEM SLIDE GLU-PIII. Glucose oxidase (GOD) catalyzes the oxidization of sample glucose to generate hydrogen peroxide which then reacts with dye precursors and forms red dye. The optical reflection density was measured at 505 nm by the FUJI DRI-CHEM analyzer and converted into the glucose concentration […]. For the measurement of glucose concentration in cell culture, HBV producing cells (HepG2 and Q7 cells) were treated with PPARγ antagonist, GW9662 at indicated concentrations. Twenty-four hours before glucose measurement, the medium was replaced with 1 ml of glucose-free DMEM, supplemented with 2 mM sodium pyruvate. After 16 hrs incubation, 50 μl of medium was collected and the glucose concentration (mM) was measured using the glucose colorimetric assay (Biovision).

HBV enhancer II = experiment: HBV enhancer/promoter luciferase reporter assay; assay type: cell-based, hepatitis B virus; settings: Huh7 cells, pGL3/enhII reporter
Source text: (§2) Assay for 3′ UTR or enhancer/promoter was as described previously. Chen, H. L., et al., PloS one 7, e34116 (2012).

3′ UTR of PGC1α = experiment: 3′UTR luciferase reporter assay, PGC1α; assay type: cell-based, human; settings: reporter cotransfection assay
Source text: as §2
(§3) An upstream fragment of the miR-130a precursor (−750 to −1 nt), containing putative binding sites for NF-κB/p65, Egr-1, and CREB, was amplified by PCR from human HepG2 genomic DNA. The PCR products were separated by agarose gel electrophoresis, and the isolated DNA fragments were then cloned into the restriction enzyme digested pGL3 Basic Vector (Promega, Madison, Wis.) containing a firefly luciferase reporter (New England Biolab, Ipswich, Mass.). Various promoter deletion plasmids, containing shorter fragments upstream from the miR-130a precursor, were derived from the full-length promoter plasmid by PCR amplification and cloning using various PCR primers (Table 1 above). All the promoter plasmids were confirmed by sequencing. HuH-7 cells were transfected with promoter deletion plasmids for 48 hrs and firefly luciferase activities were then measured and normalized to each cotransfected renilla luciferase level. The full-length 3′UTRs of PPARγ, PGC1α and SP1 were amplified from genomic DNA of HepG2 cells using their respective forward and reverse primers (Table 1), and cloned into a psiCHECK-2 luciferase vector (Promega, Madison, Wis.) (Shih, C. et al. Virology 179, 871-873 (1990)). […]

glucokinase (GCK) = experiment: GCK expression in stable miR-130a expressing cells; assay type: cell-based, human
Protocol: as §1
(§4) Briefly, 2 μg of total RNA was reverse transcribed into cDNA using random primers and High Capacity cDNA Reverse Transcription kit (Applied Biosystem) at 37° C. for 120 minutes. The cDNA product was then diluted 100 times for real-time PCR analysis using Power SYBR Green PCR master mix (Applied Biosystem), and the default condition in a 20 μl reaction volume by Applied Biosystems 7500 Real-Time PCR System. Data were analyzed by relative quantification methods (ΔΔCt methods) using 7500 software V2.0.1.
(§5) Approximately one million Huh7 and HepG2 cells were transiently transfected by 3 μg plasmid DNA (pSuper and pSuper-miR-130a) with Polyjet (SignaGen), followed by G418 selection for three weeks. The G418-resistant colonies were pooled together.

[2] = tested on: HBV pregenomic RNA (pgRNA); experiment: HBV RNA in transfected cells, Northern blot; assay type: cell-based, hepatitis B virus (HBV ayw); settings: HepG2, total cytoplasmic RNA of cotransfected culture
Protocol: HBV core particle-associated DNA, total cellular cytoplasmic RNA, and microRNA were analyzed by Northern blot as described previously. Chua, P. K., et al. Journal of virology 84, 2340-2351 (2010), Le Pogam, S., et al., Journal of virology 79, 1871-1887 (2005).

NF-κB/p65 = NF-κB/p65 protein level, Western blot; assay type: cell-based, human; settings: stable miR-130a expressing HepG2 cells
[3] = tested on: HBV 3′ UTR (nt 1521-2122); experiment: 3′ UTR luciferase reporter assay with HBV nt 1521-2122; assay type: cell-based, hepatitis B virus (HBV ayw); settings: Huh7 cells, cotransfection with miRNA expression vector
Source text: as §2

[4] = tested on: SP1, PPAR α, CEBPb, and HNF4; experiment: Expression of other hepatic transcription factors in miR-130a expressing cell lines; assay type: cell-based, human
Protocol: as §4, §5

3′ UTR of PPARγ = experiment: 3′UTR luciferase reporter assay, PPARγ; assay type: cell-based, human; settings: reporter cotransfection assay
Source text: as §2, §3

[5] = HBV-transfected Huh7 cells, increasing concentration of compound

Compound | HBV protein expression (secreted HBsAg and HBeAg) [1, 5] | HBV replication (HBV; [5]) | glucose level (HepG2 cells; HepG2 cells treated with GW9662 (20 uM), irrespective of HBV-producing status) | luciferase activity driven by HBV enhancer-II (HBV enhancer II) | luciferase activity, reporter with 3′UTR of PGC1α (3′ UTR of PGC1α) | HBV protein expression (HBc, HBsAg, HBeAg) ([1]; HepG2 cells) | secretion of HBsAg and HBeAg ([1]; media of HepG2 cotransfected with HBV DNA, ELISA) | GCK mRNA expression (glucokinase (GCK); miR-130a expressing hepatocytes, RT-qPCR) | GCK protein expression (glucokinase (GCK); stable miR-130a expressing HepG2 or Huh7 cells, Western blot) | level of HBV pregenomic RNA (pgRNA) [2] | NF-κB/p65 protein level (NF-κB/p65) | luciferase activity, wild type HBV 3′UTR reporter [3] | HBV DNA replication (HBV; HepG2 cells cotransfected with HBV DNA, Southern blot) | expression levels of most hepatic transcription factors examined [4] | glucose level (HepG2 cells; control versus miR-130a producing cells) | luciferase activity, reporter with 3′UTR of PPARγ (3′ UTR of PPARγ)
O=C(Nc1ccccc1)c1cc([N+](=O)[O-])ccc1Cl [GW9662, reference compound] | significantly reduced | significantly reduced | further increased | – | – | – | – | – | – | – | – | – | – | – | – | –
miR-130a: human microRNA, CAGUGCAAUGUUAAAAGGGCAU (SEQ ID NO:1); given as pSuper expression vector or stable expression | – | – | – | reduced the luciferase activity driven by HBV enhancer-II | significantly reduced the luciferase activity | reduce HBV protein expression | reduces the secretion of HBsAg and HBeAg | increased mRNA expression | not reduced but increased | reduced the level of HBV pregenomic RNA | increased significantly | no appreciable effect | inhibits HBV DNA replication | remained unchanged | No significant difference in glucose level | significantly reduced the luciferase activity

Reference: patent publication US9771589B2, “Treating hepatitis virus infection by modulating microRNAs miR-130a, miR-130b, miR-204, or miR-1236” (priority 2013, dated 2017)
